In general, bioavailability refers to the share of a dose that reaches the circulation, judged against a reference dose that is usually intravenous. A high value points to good availability.

Data set [1] can be described thus: Bioavailability of palonosetron as ocular drops vs. intravenous administration. The format is in vivo, Beagle dogs. How it is done: Experiment 1. Bioavailability of Palonosetron as Ocular Drops Vs. Intravenous Administration
Bioavailability of palonosetron as ocular drops at the dose of 30 μg/kg was compared to 10 μg/kg intravenous (i.v.) palonosetron in Beagle dogs (n=6). The study was a crossover study with 7 days washout period between the treatment periods. The animals were fasted overnight before dosing by withdrawing the remaining feed (if any) at least 12 h before dosing. On dosing days food was offered approximately at 4 h after dosing (after the 4 h blood sampling).
Palonosetron 30 μg/kg eye drops prepared according to Formulation Example 1 were administered in the eye using a micropipette in an amount of 10 μl/kg (approximately half volume in each eye).
Palonosetron 10 μg/kg intravenous dose was administered in cephalic vein in slow i.v. bolus dosed within 30 seconds.
Blood samples were collected into K2EDTA tubes over a 48 h period after each treatment at the following time points: predose, 5 min, 10 min, 20 min, 30 min, 45 min, 1 h, 1.5 h, 2 h, 4 h, 6 h, 8 h, 12 h, 24 h and 48 h post administration. Aliquots of plasma were prepared and stored frozen until analysis. Palonosetron concentration in plasma was determined using Liquid chromatography-triple quadrupole mass spectrometry. The lower limit of quantification for palonosetron in dog plasma was 0.02 ng/ml.

Data set [2] relates to cisplatin-induced nausea and vomiting. Nature of the data set: Efficacy of palonosetron eye drops in cisplatin-induced nausea and vomiting model. Format: in vivo, Beagle dogs. The following applies: n=6; for vomiting episodes: T0-T420 min. On the procedure: Experiment 3. Efficacy of Palonosetron Eye Drops in Cisplatin-Induced Nausea and Vomiting Model Methods: Six non-naive adult male Beagle dogs were intravenously administered (2 ml/min) cisplatin at 18 mg/m^2 body surface over 20 min. Then, 45 min after the end of the infusion, the dogs received eye drops prepared according to Formulation Example 1 at 30 or 120 μg/kg of palonosetron or its vehicle (0.9% saline, 2% povidone) in a cross-over design. Then, the following parameters were recorded by blinded observers over 15 min periods from TO (end of the infusion of cisplatin) to 420 min (T420) after the end of the infusion of cisplatin: vomiting episodes and nausea-like behaviours including salivation, exaggerated swallowing motions, lip licking, lethargy, restlessness, and turning behaviour signalling that vomiting is imminent. In addition, a visual analogue scale (VAS) from 0 to 100 mm was used to assess the severity of the dogs' nausea-like behaviours (where a score of 0 mm=no nausea and a score of 100 mm=worst possible nausea).

Where [3] appears, read: 30 μg/kg ocular drops (Formulation Example 1), Beagle dogs.

For the compound `O=C1c2cccc3c2[C@H](CCC3)CN1[C@@H]1CN2CCC1CC2` [Palonosetron], in data set [1] (setting [3]), the absorption result is “fast absorption comparable to intravenous administration”, the elimination phase entry is “extended elimination phase”, the eye irritation result was “No significant eye irritation was seen” and the systemic exposure result is “good systemic exposure”. The compound further returned a bioavailability in data set [1] (dog, other: ocular drops (administered in the eye), 30 μg/kg ocular drops (Formulation Example 1) vs. 10 μg/kg i.v., Beagle dogs (n=6), plasma) of 65.6%. The vomiting episodes in data set [2] (30 μg/kg eye drops (Formulation Example 1) 45 min after cisplatin 18 mg/m^2 i.v.) is 1 vomiting episode in 2 dogs overall. Moreover, in data set [2] (30 μg/kg eye drops (Formulation Example 1) after cisplatin 18 mg/m^2, mean±SEM), the “VAS AUC (nausea)” value is on record as 320±268 mm*m. In data set [2] (120 μg/kg eye drops (Formulation Example 1) 45 min after cisplatin 18 mg/m^2 i.v.), the vomiting episodes entry is “inhibited vomiting totally”. For the same compound, the “VAS AUC (nausea)” value in data set [2] (120 μg/kg eye drops (Formulation Example 1) after cisplatin 18 mg/m^2, mean±SEM) is recorded as 0±0 mm*m.

The values are drawn from patent US11433021B2, “Palonosetron for the treatment or prevention of nausea and vomiting” (ORION CORPORATION, priority 2018, dated 2022).
